The values that follow come from patent US12071436B2, “Anti-parasitic compounds and uses thereof” (Memorial Sloan-Kettering Cancer Center, priority 2016, dated 2024).

Each structure is given as a SMILES string. Where two headings read alike, the source gives them in different places.

Data set [1] in a line: Metabolic stability in mice liver microsomes (MLM), 0.25 mg/mL. It counts as in vitro ADME. The conditions noted are these: mouse, pH 7.4, 1 μM compound, 0.25 mg/mL microsomes, NADPH, read-out: microsomal stability (t1/2, mouse): 0.25 mg/mL hepatic microsomes. As to the method: To evaluate the metabolic stability of compounds 21 and 37 in mice liver microsomes (MLM), a 1120 μL aliquot of potassium phosphate buffer (50 mM, pH 7.4) containing mice liver microsomes (0.357 mg/mL) was added to individual 2 mL tubes (final concentration 0.25 mg/mL). Imipramine in MLM was run as positive controls. Test compounds (compound 21 or compound 37) and positive control compounds (1 mM DMSO stocks) were directly spiked into respective tubes to prepare a concentration of 1.428 μM (final concentration 1 μM). From the above mix, 70 μL was added to individual wells of 96 well reaction plates and pre-incubated in a 37° C. water bath for 5 min. All the reactions were initiated by adding 30 μL of 3.33 mM NADPH (final concentration 1 mM). Reactions without NADPH and heat inactivated microsomes minus NADPH (0 min and 60 min) were also incubated to rule out non-NADPH metabolism or chemical instability in the incubation buffer. All reactions were terminated using 100 μL of ice-cold acetonitrile containing internal standard (glipizide—2 μM) at 0, 5, 15 and 60 min. The plates were centrifuged at 4000 RPM for 15 min and 100 μL aliquots were submitted for analysis by LC-M/MS. Samples were monitored for parent compound disappearance in Multiple reaction monitoring (MRM) mode using LC-MS/MS.
Background: Microsomes from liver hold many membrane-bound enzymes, among them those of drug oxidation.

Data set [2] is described as follows: Caco-2 bi-directional permeability. The conditions noted are these: human, Caco-2, pH 7.4. It counts as in vitro ADME. As to the method: To evaluate the bi-directional Caco-2 permeability of compounds 21 and 37, Caco-2 cells were grown in Dulbecco's Modified Eagle Medium (DMEM) (20% Fetal bovine serum (FBS)) until 85-90% confluence. After attaining required confluence, cells were trypsinized and seeded into 24 well millcell plates at a density of 0.6×10^5 cells/insert. The plates were maintained for 21 days at 37° C. in CO2 incubator with change of medium every alternative day. Monolayer integrity was monitored by measuring Trans-epithelial electrical resistance (TEER) from day 15. Caco-2 cell monolayer was washed twice with HBSS and incubated for 30 min in CO2 incubator. TEER values were measured and wells showing TEER values above 230 ohms·cm2 were taken for experiments. Bi-directional permeability study was initiated by adding appropriate volume of HBSS containing the test compounds or probe P-gp substrate loperamide to either the apical (A-B transport) or basal side (B-A transport) of the monolayer. At selected time points (0, 15, 30, 60 and 90 mins) an aliquot of 50 μL was collected from the receiver compartment for determination of test compound concentrations. The volume withdrawn was replaced immediately with plain HBSS buffer (pH 7.4). TEER was measure at the end of the experiment to test the post experiment monolayer integrity. […]
For orientation: Caco-2 cells form a polarised layer with tight junctions and transporters.

Data set [3] in a line: Plasma protein binding by equilibrium dialysis. It counts as in vitro ADME. The conditions noted are these: mouse, 37° C. As to the method:
To evaluate the plasma protein binding of selected compounds, equilibrium dialysis was used. All samples of the selected compounds were tested in triplicate using the RED Rapid Equilibrium Dialysis Device (Thermo Scientific). The initial drug concentration in the plasma chamber was 5 μM and phosphate buffered saline was added to the receiver chamber. The plate was covered and allowed to shake in a 37° C. incubator for 6 hours. 25 μl was sampled from the plasma and PBS chambers which were then diluted with either blank PBS or plasma to achieve a 1:1 ratio or plasma:PBS for all samples. The concentration of drug in the plasma and PBS chambers were determined by LC-MS/MS. The fraction bound was calculated as ([plasma]−[PBS])/[plasma].

Data set [4] is described as follows: Plasma pharmacokinetics in female BALB/c mice (ip and po). It counts as in vivo, mouse. The settings on record: 50 mg/kg; for bioavailability / AUC / Cmax / half-life: female, BALB/c, mice; for bioavailability / AUC / Cmax / half-life / Tmax: mouse, plasma; for bioavailability: oral, read-out: Relative Bioavailability, Frel (po/ip); for Tmax / plasma concentrations quantifiable till: female BALB/c mice. The method, then:
To evaluate the plasma pharmacokinetics of selected compounds, a group of eighteen female mice were administered divided into two groups; Group 1 (intraperitoneal (i.p.)) and Group 2 (oral administration (p.o.)) with compound 21 or compound 37 solution formulation at a dose of 50 mg/kg by both the routes in 5% NMP, 5% Solutol and 90% Normal saline. Blood samples (approximately […]) were collected from retro orbital plexus of each mouse under light isoflurane anesthesia such that the samples were obtained at 0.083, 0.25, 0.5, 1, 2, 4, 8, 12 and 24 hours (i.p.); and pre-dose, 0.25, 0.5, 1, 2, 4, 8, 12 and 24 hour (p.o.). The blood samples were collected from a set of three mice at each time point in labeled micro centrifuge tube containing K2EDTA as anticoagulant. Plasma samples were separated by centrifugation at 4000 rpm for 10 min and stored below −70° C. until bioanalysis. After collection of blood sample, animals were humanely euthanized by carbon dioxide asphyxiation to collect liver and heart from Group 1 and Group 2 at 1, 8 and 24 hours. The collected tissues were rinsed in PBS and were homogenized with cold phosphate buffer saline (pH 7.4) of nine times the weight of liver and two times the weight of heart tissue and stored below −70° C. until bio-analysis. Total volume was ten and three times the tissue weights of liver and heart, respectively. All samples were processed for analysis by protein precipitation using acetonitrile and analyzed with fit-for-purpose LC-MS/MS method (LLOQ: 1.01 ng/mL for plasma; 20.20 ng/g for liver and 6.06 ng/g for heart tissue). […] Exemplary results for compounds 21 (2015-FoleyC-021) and 37 (2015-FoleyC-037) are shown above in Table 2.

Where [5] appears, read: ip, read-out: PK (ip, 50 mg/kg) Area under the curve (AUC).
Setting [6] is: ip, read-out: PK (ip, 50 mg/kg) Cmax.
The mark [7] stands for this setting: ip, read-out: PK (ip, 50 mg/kg) t1/2 (converted).
Where [8] appears, read: po, read-out: PK (po, 50 mg/kg) AUC.
Where [9] appears, read: po, read-out: PK (po, 50 mg/kg) Cmax.
The mark [10] stands for this setting: po, read-out: PK (po, 50 mg/kg) t1/2 (converted).
Setting [11] is: ip, single intraperitoneal dose.

As for `CN(C)CC#Cc1cccc(-c2nc(C(=O)NCc3ccc4c(c3)OCO4)cc3c2[C@@H](CCO)N([S@+]([O-])C(C)(C)C)C3)c1` [compound 21, (R)-N-(Benzo[d][1,3]dioxol-5-ylmethyl)-2-((R)-tert-butylsulfinyl)-4-(3-(3-(dimethyl-amino)prop-1-yn-1-yl)phenyl)-3-(2-hydroxyethyl)-2,3-dihydro-1H-pyrrolo[3,4-c]pyridine-6-carboxamide], the half-life at 1 μM in data set [1] came to 0.767 h. In data set [2], the efflux ratio at 90 min stood at 24.9. This compound showed a fraction unbound at 6 h, 5 μM in data set [3] of 0.045. Besides, the bioavailability in data set [4] came out at 48%. In addition, the AUC in data set [4] (setting [5]) worked out at 50.1 µM·h; in data set [4] (setting [8]) it was 24.3 µM·h. Besides, the Cmax came out at 19.8 µM in data set [4] (setting [6]) and 11.8 µM in data set [4] (setting [9]). The half-life in data set [4] (setting [7]) was 2.8 h; in data set [4] (setting [10]) it was 3.5 h. The figures for the Tmax in data set [4] (setting [11]) and in data set [4] (single oral dose) were 0.25 h and 1 h, respectively. Further, the “plasma concentrations quantifiable till” value in data set [4] (single intraperitoneal dose) and in data set [4] (single oral dose) was 24 h throughout.

Take `CN(C)CC#Cc1cccc(-c2nc(C(=O)N[C@@H]3CCN(Cc4ccccc4)C3)cc3c2[C@@H](CCO)N([S@+]([O-])C(C)(C)C)C3)c1` [compound 37, (R)-N-((R)-1-Benzylpyrrolidin-3-yl)-2-((R)-tert-butylsulfinyl)-4-(3-(3-(dimethylamino)prop-1-yn-1-yl)phenyl)-3-(2-hydroxyethyl)-2,3-dihydro-1H-pyrrolo[3,4-c]pyridine-6-carboxamide]: the half-life at 1 μM in data set [1] turned out to be 0.217 h. Also, the efflux ratio at 90 min in data set [2] amounted to 13.2. In data set [3], this compound had a free fraction (fraction unbound) at 6 h, 5 μM of 0.081. The bioavailability in data set [4] is 47%. In addition, the results for the AUC in data set [4] (setting [5]) and in data set [4] (setting [8]) were 11.1 µM·h and 5.2 µM·h, respectively. Moreover, the figures for the Cmax in data set [4] (setting [6]) and in data set [4] (setting [9]) were 6.8 µM and 1.7 µM, respectively. In addition, the half-life is 6.3 h in data set [4] (setting [7]) and 4.3 h in data set [4] (setting [10]). Also, the Tmax was 0.25 h in data set [4] (setting [11]) and 1 h in data set [4] (single oral dose). The “plasma concentrations quantifiable till” value in data set [4] (single intraperitoneal dose) and in data set [4] (single oral dose) was 24 h throughout.

For orientation: efflux ratio means a quotient of directional permeabilities that is used to spot active efflux. In general, fraction unbound refers to free concentration divided by total concentration. Low values mean extensive binding, high ones weak binding. In general, Tmax refers to the time from dosing to the highest level.
